{"source": "patent US10617662B2", "about": "“Autophagy activation-induced compound for improving skin inflammation for aging” (INCOSPHARM CORPORATION, priority 2017, dated 2020)", "tested_on": "IL-1β (interleukin-1beta)", "assay": "ELISA for IL-1β in LPS-treated HEKa cells", "format": "cell-based, human", "conditions": "LPS-induced inflammatory condition, 10·M, FIG. 10", "description": "ELISA (enzyme-linked immunosorbent assay) for IL-1β (interleukin-1beta) which is very closely related to atopic inflammation and psoriasis was performed.\nAs a specific experimental method, HEKa cells (Human Epidermal keratinocytes, adult), human-derived epidermal keratinocytes were seeded on a 24 well plate at a density of 1×10^5 cells, and cultured in an EpiLife medium (1× Human keratinocyte Growth supplement, 1× antibiotics) in an incubator under 37° C. and 5% CO2 for 24 hours.\nAfter culturing, while an inflammatory condition was induced by treatment with LPS (lipopolysaccharides) in each well, further treatment was performed with Compound 8 of the present invention and the compound of the following Comparative Example at a concentration of 10·M, and then the cells were incubated for a certain period. After completing culturing, media were collected, and then ELISA for IL-1β was carried out, and the results are shown in FIG. 10.", "data": [{"smiles": "O=C(O)CN(CCCCNC(CCCCN(CC(=O)O)CC(=O)O)C(=O)O)CC(=O)O", "note": "(stereo not shown) [compound of the Comparative Example, reference compound]", "values": [{"measurement": "cytokine IL-1β secretion level", "value": "negligible"}]}]}
